Test results as given in a melting point compilation (Tetko et al.; mined from patent text by program, amines drawn as free bases though some values may be those of a salt).

Row | SMILES | melting point [°C]
1 | COC(=O)C1C=C2c3cccc4[nH]c(C)c(c34)CC2N(C)C1 (centres undefined) | 154
2 | CC(C)n1nnc2c(NCc3ccccc3O)nc(N[C@H]3CC[C@H](N)CC3)nc21 | 120 to 123
3 | CCCCCC(=O)Nc1ccc2ccn(CCCCCCCC#N)c2c1 | 85 to 86
4 | COc1ccccc1NC(=O)Nc1nc(Nc2ccccc2-c2ccccc2)nc(N2Cc3ccccc3CC2C(=O)O)n1 (centres undefined) | 138 to 145
5 | O=C(Nc1ccncn1)c1ccccc1SSc1ccccc1C(=O)Nc1ccncn1 | 234 to 235
6 | O=C1CSCN1c1cc(Cl)cc(Cl)c1 | 87 to 92
7 | O=[N+]([O-])C=C(NCCCOc1cccc(CN2CCCCC2)c1)NCC(O)c1ccc(F)cc1 (centres undefined) | 135 to 136
8 | CC(C)c1c(C(=O)Nc2ccccc2)c(-c2ccccc2)c(-c2ccc(F)cc2)n1CCC(O)CC(O)CC(=O)N(c1ccccc1)c1ccccc1 (centres undefined) | 228 to 233
9 | CCOC(=O)c1ncc2[nH]c3ccc(C#N)cc3c2c1COC | 252 to 255
10 | O=C(NCc1ccccc1)c1ccnc(N2CCN(Cc3ccncc3)C2=O)c1 | 154 to 156
11 | COCn1cncc1C[C@H](NC(=O)C(Cc1cccc2ccccc12)Cc1cccc2ccccc12)C(=O)OC | 182 to 185
12 | Cc1cc(C)cc(C(=O)NC(C(N)=O)n2cccn2)c1 (centres undefined) | 193 to 195
13 | COC(=O)N=P(c1ccccc1)(c1ccccc1)c1ccccc1 | 138 to 139
14 | CCOC(=O)NC1=NCC(c2ccc(F)cc2)N1C (centres undefined) | 117 to 118
15 | CCOC(=O)C(C)(C)Sc1ccc(O)cc1 | 68 to 69
16 | COc1ccc2ccc(N3C(=O)c4ccccc4C3CC(=O)CCC(C)C)nc2n1 (centres undefined) | 150
17 | O=C1NC(=Cc2ccc(Cl)cc2Cl)C(=O)C1=NO | 180
18 | Cn1cc(S(=O)(=O)Cl)c(=O)c2cc(F)c(Cl)cc21 | > 300
19 | N#Cc1cccc(-c2ccc3cc[nH]c(=O)c3c2)c1 | > 300
20 | O=C(NCCC1CC1)c1ccnc(N2CCN(Cc3ccc(F)cc3)C2=O)c1 | 123 to 125
21 | CCOC(=O)c1c(Cl)c(Cl)c(Cl)c(Cl)c1C#N | 74 to 75
22 | N#Cc1ncn(-c2cccc(Cl)c2F)c1I | 182 to 183
23 | CCCCCc1c(/C=C/C(=O)O)oc2cc(OC)ccc12 | 146 to 147

Row | SMILES | melting point [°C]
24 | CSC(SC)C1(O)O[C@H](COCc2ccccc2)[C@@H](OCc2ccccc2)[C@H](OCc2ccccc2)[C@H]1OCc1ccccc1 (some centres undefined) | 96 to 97
25 | CN1CCN(c2nc3c(cc2F)c(=O)c(C(=O)O)cn3C2CSC2)CC1 | 270 to 280
26 | COc1cc(Cl)c2c(=O)c(-c3ccccc3C)coc2c1 | 159 to 160
27 | CCN(CC)C(=O)Oc1cc(C(C)C)ccc1C1(O)C(=O)c2ccccc2C1=O | 103 to 106
28 | Cc1ccc(N(C)C)cc1C=O | 64 to 65
29 | N#Cc1nn(-c2c(Cl)cc(C(F)(F)F)cc2Cl)cc1SC(F)(F)F | 126 to 128
30 | CCN1C(=O)CCCc2cc(Nc3ncc(Cl)c(Nc4ccccc4S(=O)(=O)N(C)C)n3)c(OC)cc21 | 147 to 153
31 | CN1CCC(c2n[nH]c3ccc(NC(=O)c4ccc(F)cc4)cc23)CC1 | 151 to 153
32 | CC(C)Oc1ccc(CCCOc2cc(CCC(=O)O)n(C)n2)c(Oc2ncc(C(F)(F)F)cc2Cl)c1 | 88 to 89
33 | O[C@H]1CC[C@H](CN2CCC(=C3c4ccc(F)cc4Sc4ccc(C(F)(F)F)cc43)CC2)CC1 | 144 to 146
34 | CCOC(=O)c1c(Cl)nc2cc(F)c(C)cc2c1CCl | > 250
35 | NC(=O)NCc1ccc(CN(CC(=O)O)C(=O)[C@@H](CCCNC(N)=N[N+](=O)[O-])NC(=O)C(c2ccccc2)c2ccccc2)cc1 | 78 to 81
36 | O=C(c1ccc(Nc2ccnc3cc(C(F)(F)F)ccc23)cc1)N1CCC(S(=O)c2ccc(F)cc2)CC1 (centres undefined) | 215 to 216
37 | O=C1N(Cc2ccc3nonc3c2)c2ccccc2C12COc1cc3c(cc12)OCO3 (centres undefined) | 163 to 165
38 | COc1cc2ncnc(NNC(N)=O)c2cc1OC | 247 to 249
39 | O=C1c2cc3ccc4c(c3c(-c3ccncc3)c2C[NH+]1[O-])OCO4 (centres undefined) | 270 to 274
40 | COC(=O)c1c(C)nc2c(C)cc(C)cc2c1-c1ccccc1Cl | 119 to 120
41 | Cn1c(=O)nc(-c2ccccc2F)c2c3c(sc21)CCCC3 | 221 to 222
42 | CC(=O)Nc1ccc(C(=O)C=CN(C)C)cc1 | 185 to 186
43 | CC(C)CCCC(C)C1CCC2C3CC=C4CC(OCCCCCCI)CCC4(C)C3CCC12C (centres undefined) | 104
44 | Cn1c2ccc([N+](=O)[O-])cc2c2c3ccccc3c(=O)[nH]c21 | > 300
45 | Cc1nc2c(N[C@@H]3c4ccccc4C[C@H]3O)cc(C(=O)N(C)C)cn2c1C (relative stereo) | 148 to 149
46 | COC(=O)Nc1ccc(C(=O)OC)nc1 | 211 to 213

Row | SMILES | melting point [°C]
47 | Cc1cccc2c1CN(S(C)(=O)=O)CCS2 | 128 to 130
48 | O=C(O)C1CCc2c(oc3ccc(Cl)cc23)C1 (centres undefined) | 194 to 198
49 | Cc1cc(-c2cc(C(F)F)n3ncc(C(=O)Nc4cccc(S(=O)(=O)N5CCOCC5)c4)c3n2)ccc1C(F)(F)F | 261
50 | CCOC(=O)C1=Cc2cc(Br)ccc2SC1 | 87
51 | Cc1ccc(C)n1-c1ccc(I)cc1F | 68 to 70
52 | O=c1nc(-c2ccccn2)sc2cc(Br)ccc12 | 231 to 232
53 | Clc1ccc2nc(-c3ccccc3)oc2n1 | 150 to 151
54 | O=C(O)c1cc2ccnc(Cl)c2[nH]1 | 210 to 214
55 | COc1cccc(N2CCN(C[C@H]3COc4ccc5nc(C)ccc5c4O3)CC2)c1 | 90 to 91
56 | CCCCCCCCCCOc1ccc(-c2ccc(C#CCCC(C)OC(C)=O)cc2)cc1 (centres undefined) | 80 to 82
57 | C=C1CC2(CC)C(=O)CC(OC(C)=O)C2C2CCC3=CC(=O)CCC3C12 (centres undefined) | 176
58 | CCOC(=O)c1cnc(NC(=O)C(Cc2ccc(F)cc2)c2ccc(S(C)(=O)=O)cc2)cn1 (centres undefined) | 99 to 100
59 | CN(CCN1CCOCC1)c1noc2cc(OC(=O)NCc3ccccc3)ccc12 | 106 to 107
60 | COc1cccc(CO)c1OCc1ccccc1 | 58 to 60
61 | Cc1cc(C2N(c3ccccc3)CCN2c2ccccc2)c(O)cc1N(C)C | 207 to 212
62 | NC(=O)c1sc2ncnc(-c3cccc(NC(=O)Cc4ccccc4)c3)c2c1N | 255 to 258
63 | COc1ccc(-c2cc(=Nc3c(C)cc(C)cc3C)n(C)c(N3CCN(C(=O)c4ccc(F)cc4)CC3)n2)cc1OC | 117 to 121
64 | CCOC(=O)c1cn(C(C)CCl)c2c(F)c(F)c(F)cc2c1=O (centres undefined) | 190 to 191
65 | CC1CN(Cc2ccccc2)c2c3c(nc4cccc(c24)O1)CCCC3 (centres undefined) | 152 to 153
66 | Cc1ccc(NC(=O)N[C@@H]2N=C(c3ccccc3)c3ccccc3N(C)C2=O)cc1 | 233 to 235
67 | C#CCN1Cc2cccc3cccc(c23)C1=O | 139 to 140
68 | N#Cc1ccc(Oc2ccc(CC(=O)O)cc2)nc1 | 148 to 151
69 | CCOc1ccc(C2=NN(c3ccc(C4=NNC(=O)CC4C)cc3)C(=O)C3CC=CCC23)cc1OCC (centres undefined) | 164 to 165

Continued, values first:

Row | melting point [°C] | SMILES
70 | 135 to 137 | CC(=O)C(Cc1c(CCN(C)C)[nH]c2ccccc12)(c1ccccc1)c1ccccc1
71 | 190 to 192 | COc1ccc(CC(=O)c2c(O)c3cccnc3n(-c3ccccc3)c2=O)cc1
72 | 150 | CC(=O)O[C@@H]1CN2C(=O)N(c3cc(Cl)cc(Cl)c3)C(=O)[C@]2(Cc2ccc(Br)cc2)C1
73 | 114 | C/C(=C\c1ccc(OC(C)C)cc1Oc1ncc(C(F)(F)F)cc1Cl)C(=O)O
74 | > 230 | COCCNC(=O)c1ccc2c(c1)C(=NNc1ccc(S(N)(=O)=O)cc1)C(=O)N2
75 | 74 to 75 | CCC(COC)(OC)c1cccc(OCOC)c1 (centres undefined)
76 | 65 to 67 | O=C(O)CCCC1(c2ccc(F)cc2)OCCO1
77 | 264 to 265 | COc1ccc(C(=O)NCc2ccccc2)c2c1oc1ccc(NC(C)=O)cc12
78 | 82 to 85 | COC(=O)c1cc(Cl)c(Oc2ccc(OC)cc2)c(Cl)c1
79 | 205 to 207 | Oc1cccc(-c2ccc3c(-c4cccnc4)coc3c2)c1
80 | 99 to 100 | O=C(CCCN1CCC(c2ccc(Cl)cc2)CC1)c1ccc2c(c1)CCN(Cc1ccccc1)CC2
81 | 226 to 227 | O=C1N(Cc2ccc(O)cc2)c2ccccc2C12COc1cc3c(cc12)CCO3 (centres undefined)
82 | 158 to 160 | CC(=O)OCC(=O)C1CCC2C3CCC4CC(O)C(N5CCOC(C)(C)C5)CC4(C)C3C(=O)CC12C (centres undefined)
83 | 75.5 to 76.5 | CCOc1ccc2c(c1)C(C)=CC(C)(C)N2C(=O)Cl
84 | 81 to 82 | Cc1ccc(-c2ncncc2Br)cc1
85 | 110 to 111 | Cc1cc(CCCCCS(=O)c2ccc(C3=NCCO3)cc2)on1 (centres undefined)
86 | 226 to 228 | CCOC(=O)C(C)(C)Sc1ccc(NCCn2c(C)nc3ccccc3c2=O)cc1
87 | 105 to 107 | COCCn1cc(C#N)c(N)n1
88 | 82 to 84 | CCOC(=O)/C=C(/c1ccc(Cl)cc1)c1cccc(OC)c1OC
89 | 148 | CS(=O)(=O)c1ccc(-c2cc(CO)nn2C2CCCCC2)cc1
90 | 123 to 124 | Cn1c(C(F)(F)F)ccc(-c2ccc(F)cc2F)c1=O
91 | 172 to 174 | COc1ccc(NC(=O)c2ccc([N+](=O)[O-])cc2)c(OC)c1
92 | 107 to 108 | N#CCCCC1Sc2ccccc2NC1=O (centres undefined)
93 | 212 to 214 | NC(=O)c1ccc(-c2ccc3ncn(Cc4ccc5ncccc5c4)c3n2)cc1Cl
94 | 195 to 198 | CCCOc1nsc(NC(=O)NC)c1C(N)=O
95 | 105 to 107 | CC1(C)c2cc(C#N)ccc2OC1N1CCOCC1 (centres undefined)
96 | 174 to 176 | O=C(Nc1cc2c(s1)-c1ccccc1OC2C1=CCCC=C1)C(F)(F)F (centres undefined)
97 | 255 to 256 | O=C(Oc1cc[nH]c(=O)c1)c1ccc([N+](=O)[O-])cc1
98 | 78 | O=C(O)C1Cc2ccccc2N1S(=O)(=O)c1ccc(-c2cccc(Cl)c2)cc1 (centres undefined)
99 | 79 to 80 | CC(C)(C)C(O)c1ccc(Oc2ccccc2)cc1 (centres undefined)
